Assays:
GK-GKRP [1] = target: T1, GK-GKRP (Homo sapiens, UniProt Q14397); assay: biochemical; conditions: GK-GKRP IC50 (Binding)
T1 sequence (Q14397 1-625): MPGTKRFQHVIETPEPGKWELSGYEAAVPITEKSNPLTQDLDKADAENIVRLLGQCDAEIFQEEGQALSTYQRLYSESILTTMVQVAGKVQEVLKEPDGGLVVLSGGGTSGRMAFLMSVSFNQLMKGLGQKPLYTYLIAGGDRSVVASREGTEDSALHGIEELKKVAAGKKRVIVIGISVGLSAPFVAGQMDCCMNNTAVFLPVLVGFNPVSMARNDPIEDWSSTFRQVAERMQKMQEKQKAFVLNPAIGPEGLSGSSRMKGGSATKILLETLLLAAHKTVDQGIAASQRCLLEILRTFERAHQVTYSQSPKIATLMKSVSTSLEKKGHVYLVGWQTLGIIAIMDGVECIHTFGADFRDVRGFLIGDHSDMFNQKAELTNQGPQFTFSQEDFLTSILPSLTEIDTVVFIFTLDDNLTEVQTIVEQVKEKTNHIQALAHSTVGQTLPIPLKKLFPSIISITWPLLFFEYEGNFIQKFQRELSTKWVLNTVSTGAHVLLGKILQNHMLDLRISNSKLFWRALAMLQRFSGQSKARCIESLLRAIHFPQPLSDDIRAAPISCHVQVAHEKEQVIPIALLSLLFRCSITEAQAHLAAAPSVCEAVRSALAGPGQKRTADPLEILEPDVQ

GK-GKRP [2] = target: T1, GK-GKRP; assay: biochemical

Row | Structure (SMILES) | IC50 (GK-GKRP [1]) [nM] | EC50 (GK-GKRP [2]) [nM]
1 | Cc1cc(S(=O)(=O)c2ccc(N)nc2)ccc1-c1ncc(C(O)(C(F)(F)F)C(F)(F)F)cn1 [Example 268, 2-(2-(4-((6-amino-3-pyridinyl)sulfonyl)-2-methylphenyl)-5-pyrimidinyl)-1,1,1,3,3,3-hexafluoro-2-propanol] | 103 | 232
2 | CC1(C)C(=O)NCCN1C[C@H]1CN(S(=O)(=O)c2ccc(N)nc2)CCN1c1ncc(C(O)(C(F)(F)F)C(F)(F)F)cn1 [Example 235, 4-(((2S)-4-((6-amino-3-pyridinyl)sulfonyl)-1-(5-(2,2,2-trifluoro-1-hydroxy-1-(trifluoromethyl)ethyl)-2-pyrimidinyl)-2-piperazinyl)methyl)-3,3-dimethyl-2-piperazinone] | 8 | 13
3 | CC(C)S(=O)(=O)NC[C@H]1CN(S(=O)(=O)c2cccs2)CCN1c1ccc(C(C)(O)C(F)(F)F)cc1 (mixture of isomers) [Example 237, N-(((2S)-4-(thiophen-2-ylsulfonyl)-1-(4-(1,1,1-trifluoro-2-hydroxypropan-2-yl)phenyl)piperazin-2-yl)methyl)propane-2-sulfonamide] | 335 | 632
4 | CC(C)N1C(=O)N(C[C@H]2CN(S(=O)(=O)c3cccs3)CCN2c2ccc(C(C)(O)C(F)(F)F)cc2)C(C)(C)C1=O (mixture of isomers) [Example 242, 5,5-dimethyl-3-(1-methylethyl)-1-(((2S)-4-(2-thiophenylsulfonyl)-1-(4-(2,2,2-trifluoro-1-hydroxy-1-methylethyl)phenyl)-2-piperazinyl)methyl)-2,4-imidazolidinedione] | 19 | 29
5 | CC(O)(c1ccc(N2CCN(S(=O)(=O)c3cccs3)C[C@@H]2CN2C(=O)NC(=O)C23CCC3)cc1)C(F)(F)F (mixture of isomers) [Example 236, 5-(((2S)-4-(2-thiophenylsulfonyl)-1-(4-(2,2,2-trifluoro-1-hydroxy-1-methylethyl)phenyl)-2-piperazinyl)methyl)-5,7-diazaspiro[3.4]octane-6,8-dione] | 379 | 363
6 | O=S(=O)(c1ccccc1)c1ccc(-c2ncc(C(O)(C(F)(F)F)C(F)(F)F)cn2)cc1 [Example 263, 1,1,1,3,3,3-hexafluoro-2-(2-(4-(phenylsulfonyl)phenyl)-5-pyrimidinyl)-2-propanol] | 484 | 478
7 | CC(C)CS(=O)(=O)N(C[C@H]1CN(S(=O)(=O)c2cccs2)CCN1c1ccc(C(C)(O)C(F)(F)F)cc1)c1cccnc1 (mixture of isomers) [Example 253, 2-methyl-N-3-pyridinyl-N-(((2R)-4-(2-thiophenylsulfonyl)-1-(4-(2,2,2-trifluoro-1-hydroxy-1-methylethyl)phenyl)-2-piperazinyl)methyl)-1-propanesulfonamide] | 35 | 
8 | CC(O)(c1ccc(N2CCN(S(=O)(=O)c3cccs3)C[C@@H]2CN2CCNC(C(F)(F)F)C2)cc1)C(F)(F)F (single isomer, unassigned) [Example 270 Peak 2] | 463 | 
9 | CC#C[C@H]1CN(S(=O)(=O)c2ccccc2)CCN1c1ccc(C(O)(C(F)(F)F)C(F)(F)F)cc1 [Example 247, 1,1,1,3,3,3-hexafluoro-2-(4-((2S)-4-(phenylsulfonyl)-2-(1-propyn-1-yl)-1-piperazinyl)phenyl)-2-propanol] | 21 | 
10 | CC#CC1CN(S(=O)(=O)c2ccc(N)nc2)CCN1c1ncc(C(C)(O)C(F)(F)F)cn1 (mixture of isomers) [Example 251, 2-(2-(4-((6-amino-3-pyridinyl)sulfonyl)-2-(1-propyn-1-yl)-1-piperazinyl)-5-pyrimidinyl)-1,1,1-trifluoro-2-propanol] | 36 | 
11 | CC#CC1CN(S(=O)(=O)c2nnc(N)s2)CCN1c1ccc(C(O)(C(F)(F)F)C(F)(F)F)cc1 (racemic) [Example 249, 2-(4-(4-((5-amino-1,3,4-thiadiazol-2-yl)sulfonyl)-2-(1-propyn-1-yl)-1-piperazinyl)phenyl)-1,1,1,3,3,3-hexafluoro-2-propanol] | 112 | 
12 | CC(O)(c1ccc(N2CCN(S(=O)(=O)c3cccs3)C[C@@H]2CN2CCNC(C(F)(F)F)C2)cc1)C(F)(F)F (single isomer, unassigned) [Example 270 Peak 1] | 251 | 
13 | CCC(C)S(=O)(=O)NC[C@H]1CN(S(=O)(=O)c2cccs2)CCN1c1ccc(C(C)(O)C(F)(F)F)cc1 (stereo partly drawn) [Example 238, N-(((2S)-4-(2-thiophenylsulfonyl)-1-(4-(2,2,2-trifluoro-1-hydroxy-1-methylethyl)phenyl)-2-piperazinyl)methyl)-2-butanesulfonamide] | 204 | 270
14 | CC#CC1CN(S(=O)(=O)c2ccc(N)nc2)CCN1c1ncc(C(C)(O)C(F)(F)F)cn1 (single isomer, unassigned) [Example 251 First Eluting Peak from Set One, 2-(2-(4-((6-amino-3-pyridinyl)sulfonyl)-2-(1-propyn-1-yl)-1-piperazinyl)-5-pyrimidinyl)-1,1,1-trifluoro-2-propanol] | 15 | 
15 | Nc1ccc(S(=O)(=O)c2ccc(-c3ncc(C(O)(C(F)(F)F)C(F)(F)F)cn3)cn2)cn1 [Example 267, 2-(2-(6-((6-amino-3-pyridinyl)sulfonyl)-3-pyridinyl)-5-pyrimidinyl)-1,1,1,3,3,3-hexafluoro-2-propanol] | 103 | 113
16 | Nc1ccc(S(=O)(=O)N2CCN(c3ncc(C(O)(C(F)(F)F)C(F)(F)F)cn3)C(C#CC3CC3)C2)cn1 (stereo not shown) [Example 246, 2-(2-(4-((6-amino-3-pyridinyl)sulfonyl)-2-(cyclopropylethynyl)-1-piperazinyl)-5-pyrimidinyl)-1,1,1,3,3,3-hexafluoro-2-propanol] | 191 | 314
17 | Nc1ccc(S(=O)(=O)N2CCN(c3ncc(C(O)(C(F)(F)F)C(F)(F)F)cn3)[C@@H](CN3C4CCC3COC4)C2)cn1 [Example 271, 2-(2-((2S)-4-((6-amino-3-pyridinyl)sulfonyl)-2-(3-oxa-8-azabicyclo[3.2.1]oct-8-ylmethyl)-1-piperazinyl)-5-pyrimidinyl)-1,1,1,3,3,3-hexafluoro-2-propanol] | 3 | 
18 | Nc1ccc(S(=O)(=O)N2CCN(c3ccc(C(O)(C(F)(F)F)C(F)(F)F)cc3)[C@@H](CS(=O)(=O)c3ccccc3)C2)cn1 [Example 273, 2-(4-((2R)-4-((6-amino-3-pyridinyl)sulfonyl)-2-((phenylsulfonyl)methyl)-1-piperazinyl)phenyl)-1,1,1,3,3,3-hexafluoro-2-propanol] | 49 | 
19 | CC#CC1CN(S(=O)(=O)c2cnc(N)c(F)c2)CCN1c1ccc(C(O)(C(F)(F)F)C(F)(F)F)cc1 (racemic) [Example 250, 2-(4-(4-((6-amino-5-fluoro-3-pyridinyl)sulfonyl)-2-(1-propyn-1-yl)-1-piperazinyl)phenyl)-1,1,1,3,3,3-hexafluoro-2-propanol] | 15 | 
20 | CC#CC1CN(S(=O)(=O)c2ccc(N)nc2)CCN1c1ncc(C(C)(O)C(F)(F)F)cn1 (single isomer, unassigned) [Example 251 Second Eluting Peak from Set Two, 2-(2-(4-((6-amino-3-pyridinyl)sulfonyl)-2-(1-propyn-1-yl)-1-piperazinyl)-5-pyrimidinyl)-1,1,1-trifluoro-2-propanol] | 15300 | 
21 | CC(=O)N(C[C@H]1CN(S(=O)(=O)c2cccs2)CCN1c1ccc(C(C)(O)C(F)(F)F)cc1)c1ccc(F)cc1 (mixture of isomers) [Example 256, N-(4-fluorophenyl)-N-(((2S)-4-(2-thiophenylsulfonyl)-1-(4-(2,2,2-trifluoro-1-hydroxy-1-methylethyl)phenyl)-2-piperazinyl)methyl)acetamide] | 23 | 
22 | CC#CC1CN(S(=O)(=O)c2ccc(N)nc2)CCN1c1ncc(C(C)(O)C(F)(F)F)cn1 (single isomer, unassigned) [Example 251 First Eluting Peak from Set Two, 2-(2-(4-((6-amino-3-pyridinyl)sulfonyl)-2-(1-propyn-1-yl)-1-piperazinyl)-5-pyrimidinyl)-1,1,1-trifluoro-2-propanol] | 11300 | 

From patent US8431563B2 (priority 2010, dated 2013)
